Species on record: Rattus norvegicus
Assay: DrugMatrix - Regimen: Daily Repeat
Type: toxicity, organism-based, Sprague-Dawley
Set-up: regimen Daily Repeat, gender Male, age 6-8 weeks
Conditions: in vivo, sc, route subcutaneous, […]; for ABSOLUTE BASOPHIL / ABSOLUTE EOSINOPHIL / ABSOLUTE LYMPHOCYTE / ABSOLUTE MONOCYTE / ABSOLUTE SEGMENTED NEUTROPHIL / BASOPHIL / EOSINOPHIL / ERYTHROCYTE COUNT / HEMATOCRIT / HEMOGLOBIN / LEUKOCYTE COUNT / LYMPHOCYTE / MEAN CORPUSCULAR HEMOGLOBIN / MEAN CORPUSCULAR HEMOGLOBIN CONCENTRATION / MEAN CORPUSCULAR VOLUME / MONOCYTE / NEUTROPHIL / NUCLEATED RED BLOOD CELLS / PLATELET COUNT: tissue Blood; for ALANINE AMINOTRANSFERASE / ALBUMIN / ALKALINE PHOSPHATASE / ASPARTATE AMINOTRANSFERASE / BLOOD UREA NITROGEN / CARBON DIOXIDE / CHLORIDE / CHOLESTEROL / CREATINE PHOSPHOKINASE / CREATININE / GLUCOSE / LACTATE DEHYDROGENASE / LIPASE / PHOSPHORUS / POTASSIUM / SODIUM / TOTAL BILIRUBIN / TOTAL PROTEIN / URIC ACID: tissue Plasma
[1] = 14 mg/kg, 120 h, dose level Low, time 5 day
[2] = 140 mg/kg, 72 h, dose level High, time 3 day
[3] = 140 mg/kg, 120 h, dose level High, time 5 day

With `CCN(CC)CCOCCC1=CCC2CC1C2(C)C` (centres undefined) [MYRTECAINE] the “ABSOLUTE BASOPHIL” value [1] was 0 CELLS/uL, the “ABSOLUTE EOSINOPHIL” value [1] was 435.67 CELLS/uL and the “ABSOLUTE LYMPHOCYTE” value [1] was 16182.67 CELLS/uL. The “ABSOLUTE MONOCYTE” value [1] was 0 CELLS/uL, the “ABSOLUTE SEGMENTED NEUTROPHIL” value [1] was 2215 CELLS/uL and the BASOPHIL [1] was 0%. For the same compound, the EOSINOPHIL [1] was 2.33%, the “ERYTHROCYTE COUNT” value [1] was 6.14 x10E6/uL and the HEMATOCRIT [1] was 39.17%. For the same compound, the HEMOGLOBIN [1] was 15.53 G/DL, the “LEUKOCYTE COUNT” value [1] was 18.83 x10E3/uL and the LYMPHOCYTE [1] was 86%. For the same compound, the “MEAN CORPUSCULAR HEMOGLOBIN” value [1] was 25.33 pg, the “MEAN CORPUSCULAR HEMOGLOBIN CONCENTRATION” value [1] was 39.7 G/DL and the “MEAN CORPUSCULAR VOLUME” value [1] was 63.8 fL. For the same compound, the MONOCYTE [1] was 0%, the NEUTROPHIL [1] was 11.67% and the “NUCLEATED RED BLOOD CELLS” value [1] was 0 /100WBC. The “PLATELET COUNT” value [1] was 1530.33 x10E3/uL, the “ALANINE AMINOTRANSFERASE” value [1] was 58 u/L and the ALBUMIN [1] was 4.53 G/DL. The “ALKALINE PHOSPHATASE” value [1] was 470.67 u/L, the “ASPARTATE AMINOTRANSFERASE” value [1] was 83.67 u/L and the “BLOOD UREA NITROGEN” value [1] was 17.67 mg/dL. For the same compound, the “CARBON DIOXIDE” value [1] was 31.67 mmol/L, the CHLORIDE [1] was 104 MEQ/L and the CHOLESTEROL [1] was 76.67 mg/dL. The “CREATINE PHOSPHOKINASE” value [1] was 162.33 u/L, the CREATININE [1] was 0.26 mg/dL and the GLUCOSE [1] was 157.67 mg/dL. For the same compound, the “LACTATE DEHYDROGENASE” value [1] was 142 u/L, the LIPASE [1] was 9.67 u/L and the PHOSPHORUS [1] was 14.37 mg/dL. The POTASSIUM [1] was 7.28 MEQ/L, the SODIUM [1] was 151.27 MEQ/L and the “TOTAL BILIRUBIN” value [1] was 0.3 mg/dL. For the same compound, the “TOTAL PROTEIN” value [1] was 6.67 G/DL, the “URIC ACID” value [1] was 2.23 mg/dL and the “ABSOLUTE BASOPHIL” value [2] was 0 CELLS/uL. For the same compound, the “ABSOLUTE EOSINOPHIL” value [2] was 42 CELLS/uL, the “ABSOLUTE LYMPHOCYTE” value [2] was 11279.33 CELLS/uL and the “ABSOLUTE MONOCYTE” value [2] was 191.33 CELLS/uL. The “ABSOLUTE SEGMENTED NEUTROPHIL” value [2] was 620.67 CELLS/uL, the BASOPHIL [2] was 0% and the EOSINOPHIL [2] was 0.33%. For the same compound, the “ERYTHROCYTE COUNT” value [2] was 5.34 x10E6/uL, the HEMATOCRIT [2] was 33.37% and the HEMOGLOBIN [2] was 13.6 G/DL. The “LEUKOCYTE COUNT” value [2] was 12.13 x10E3/uL, the LYMPHOCYTE [2] was 93% and the “MEAN CORPUSCULAR HEMOGLOBIN” value [2] was 25.53 pg. The “MEAN CORPUSCULAR HEMOGLOBIN CONCENTRATION” value [2] was 40.77 G/DL, the “MEAN CORPUSCULAR VOLUME” value [2] was 62.57 fL and the MONOCYTE [2] was 1.67%. For the same compound, the NEUTROPHIL [2] was 5%, the “NUCLEATED RED BLOOD CELLS” value [2] was 0 /100WBC and the “PLATELET COUNT” value [2] was 1370.67 x10E3/uL. The “ALANINE AMINOTRANSFERASE” value [2] was 61.67 u/L, the ALBUMIN [2] was 3.67 G/DL and the “ALKALINE PHOSPHATASE” value [2] was 346 u/L. The “ASPARTATE AMINOTRANSFERASE” value [2] was 92 u/L, the “BLOOD UREA NITROGEN” value [2] was 13.33 mg/dL and the “CARBON DIOXIDE” value [2] was 30.33 mmol/L. For the same compound, the CHLORIDE [2] was 100.33 MEQ/L, the CHOLESTEROL [2] was 67 mg/dL and the “CREATINE PHOSPHOKINASE” value [2] was 447 u/L. For the same compound, the CREATININE [2] was 0.17 mg/dL, the GLUCOSE [2] was 155.33 mg/dL and the “LACTATE DEHYDROGENASE” value [2] was 247.33 u/L. It also gave an LIPASE [2] of 8 u/L, a PHOSPHORUS [2] of 13.73 mg/dL and a POTASSIUM [2] of 7.09 MEQ/L. For the same compound, the SODIUM [2] was 144.03 MEQ/L, the “TOTAL BILIRUBIN” value [2] was 0.2 mg/dL and the “TOTAL PROTEIN” value [2] was 5.6 G/DL. The “URIC ACID” value [2] was 2.03 mg/dL, the “ABSOLUTE BASOPHIL” value [3] was 0 CELLS/uL and the “ABSOLUTE EOSINOPHIL” value [3] was 174.67 CELLS/uL. For the same compound, the “ABSOLUTE LYMPHOCYTE” value [3] was 14614 CELLS/uL, the “ABSOLUTE MONOCYTE” value [3] was 386 CELLS/uL and the “ABSOLUTE SEGMENTED NEUTROPHIL” value [3] was 2992 CELLS/uL. The BASOPHIL [3] was 0%, the EOSINOPHIL [3] was 1% and the “ERYTHROCYTE COUNT” value [3] was 6.17 x10E6/uL. The HEMATOCRIT [3] was 37.83%, the HEMOGLOBIN [3] was 14.87 G/DL and the “LEUKOCYTE COUNT” value [3] was 18.17 x10E3/uL. The LYMPHOCYTE [3] was 81.33%, the “MEAN CORPUSCULAR HEMOGLOBIN” value [3] was 24.07 pg and the “MEAN CORPUSCULAR HEMOGLOBIN CONCENTRATION” value [3] was 39.33 G/DL. The “MEAN CORPUSCULAR VOLUME” value [3] was 61.3 fL, the MONOCYTE [3] was 2.33% and the NEUTROPHIL [3] was 15.33%. For the same compound, the “NUCLEATED RED BLOOD CELLS” value [3] was 0 /100WBC, the “PLATELET COUNT” value [3] was 1631 x10E3/uL and the “ALANINE AMINOTRANSFERASE” value [3] was 84.67 u/L. The ALBUMIN [3] was 3.97 G/DL, the “ALKALINE PHOSPHATASE” value [3] was 328 u/L and the “ASPARTATE AMINOTRANSFERASE” value [3] was 111.67 u/L. For the same compound, the “BLOOD UREA NITROGEN” value [3] was 16 mg/dL, the “CARBON DIOXIDE” value [3] was 26.33 mmol/L and the CHLORIDE [3] was 104 MEQ/L. For the same compound, the CHOLESTEROL [3] was 74.67 mg/dL, the “CREATINE PHOSPHOKINASE” value [3] was 356 u/L and the CREATININE [3] was 0.2 mg/dL. The GLUCOSE [3] was 164.67 mg/dL, the “LACTATE DEHYDROGENASE” value [3] was 370 u/L and the LIPASE [3] was 12 u/L. For the same compound, the PHOSPHORUS [3] was 13.97 mg/dL, the POTASSIUM [3] was 6.94 MEQ/L and the SODIUM [3] was 146.77 MEQ/L. The “TOTAL BILIRUBIN” value [3] was 0.17 mg/dL, the “TOTAL PROTEIN” value [3] was 5.97 G/DL and the “URIC ACID” value [3] was 2.6 mg/dL.

— ChEMBL document CHEMBL3885881, “DrugMatrix”
